Holding throughout (assay type): in vivo
One experiment has as its system Rice (Ballila). The experiment is described as follows: Post-emergence herbicidal effect and safener effect, Rice (Ballila). The conditions noted are these: herbicide dosage 100 g a.i./ha, visual scoring vs untreated controls. How it is done: (§1) Seeds or rhizome pieces of mono- and dicotyledonous harmful plants and of crop plants are planted in peat pots in sandy loam, covered with earth and grown in a greenhouse under good growth conditions. Alternatively to this, harmful plants occurring in the paddy rice cultivation are cultivated in pots in which water stands up to 2 cm above the soil surface. 10 to 20 days after sowing, the test plants are treated in the one to three-leaf stage. The herbicide/safener active ingredient combinations according to the invention, formulated as water-soluble powders or suspensions, and, in parallel experiments, the correspondingly formulated individual active ingredients are sprayed onto the green plant parts in various dosages using an application rate of 300 l of water/ha (converted) and, after the test plants have remained in the greenhouse under optimum growth conditions for 2-3 weeks, the effect of the preparations is scored visually in comparison with untreated controls. In the case of rice or in the case of harmful plants which occur in the rice cultivation, the active ingredients are also placed directly into the irrigation water (application analogous to the so-called granules application) or sprayed onto plants and into the irrigation water.

Experiment [1] has as its system Corn (Aventura). The experiment is described as follows: Post-emergence herbicidal effect and safener effect, Corn (Aventura). As to conditions: herbicide dosage 50 g a.i./ha, visual scoring vs untreated controls. As to the method:
as §1

Another experiment concerns Barley (Adonis). As to the kind of experiment: Post-emergence herbicidal effect and safener effect, Barley (Adonis). As to conditions: herbicide dosage 25 g a.i./ha, visual scoring vs untreated controls. How it is done:
as §1

A further experiment relates to Wheat (Triso). As to the kind of experiment: Pre-emergence herbicidal effect and safener effect, Wheat (Triso). As to conditions: herbicide dosage 100 g a.i./ha, visual scoring vs untreated controls. An excerpt:
(§2) Seeds or rhizome pieces of mono- and dicotyledonous weed plants and crop plants were planted in peat pots in sandy loam and covered with earth. The herbicide/safener active ingredient combinations according to the invention, formulated as water-soluble powders or suspensions, and, in parallel experiments, the correspondingly formulated individual active ingredients were then applied to the surface of the covering earth at an application rate of 600 to 800 l of water/ha (converted) in a variety of dosages.
(§3) After the treatment, the pots were placed in the greenhouse and kept under good growth conditions for the weeds and the crop plants. Visual scoring of the plant damage or emergence damage was carried out after the test plants had emerged after a test period of 2 to 4 weeks, in comparison with untreated controls.

For experiment [2], the system named is Corn (Aventura). The experiment is described as follows: Pre-emergence herbicidal effect and safener effect, Corn (Aventura). The conditions noted are these: herbicide dosage 100 g a.i./ha, visual scoring vs untreated controls.
Excerpt: as §2, §3

In the case of `COC(=O)c1nc(-c2ccc(Cl)c(OC)c2F)nc(N)c1Cl` [Compound I-272], the “% Effect (without safener)” value with Rice (Ballila) came out at 70%; in the experiment on Corn (Aventura) [1] it was 70%; in the experiment with Barley (Adonis), 20%; with Wheat (Triso), 30%; in the experiment with Corn (Aventura) [2], 70%.

Source of the values: patent US20100137138A1, “HERBICIDE/SAFENER COMBINATION” (BAYER CROPSCIENCE AG, priority 2008, published 2010).
